IC50 data for 55 compounds are collected here from PubChem BioAssay AID1117296 (The Scripps Research Institute Molecular Screening Center, 2014).

Active and inactive are the calls of the source.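 How the source made its calls: active means IC50 at or below 10 µM; inactive means IC50 above 10 µM.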 A value given as a limit tells only on which side of the number the result lay.

The assay has as its system HuH7 TTR-promoter Gaussia luciferase reporter, luminescence. Kind of assay: potency of TTR promoter reporter decrease in HuH7 – cell-based, luminescence, HuH7 hepatoma, IC50, counter-screen for TTR transcription activator project, dose response (AID 1117296). (In general: The purpose of a counterscreen is to sort out artefacts and off-target activity.)
Broadly, the IC50 is the concentration that gives 50% inhibition. Consider `CC(C)CNC(=O)CSc1nnc2ccccn12`, for which the IC50 is > 167 µM (inactive). To `Cn1cc(Br)c(C(=O)N2CCc3ccccc32)n1` belongs > 167 µM (inactive). In the case of `CN(C)CCNc1ccc(CO)c2oc3ccc(O)cc3c(=O)c12` it was > 55.2 µM (inactive). To `Cc1cnc(NC(=O)CCCc2nc3ccccc3s2)s1` belongs > 167 µM (inactive); to `Cn1c(O)c(/C=C2\N=c3ccccc3=C2CCNC(=S)NC2CC2)c(=O)n(C)c1=O`, 45 µM (inactive). Regarding `Cc1cccc(NC(c2ccc(O)cc2)c2ccc3ccc(C)nc3c2O)n1` (stereo not given), the IC50 was 61.8 µM (inactive). With `COc1cccc(-c2csc(NC(=O)C3CC3)n2)c1`, the IC50 is 103 µM (inactive). In the case of `CCCCn1c(O)c(C(=O)/C=C/c2ccc3c(c2)OCO3)c(=O)[nH]c1=O` it was 90.9 µM (inactive). As to `COc1ccc(C(=O)NC2CCCc3c2cnn3-c2cc(F)cc(F)c2)c(OC)c1OC` (stereo not given), the IC50 was 61.9 µM (inactive).

`Cn1cc(C2CC(c3ccccc3)=NN2C(=O)c2ccccc2)c2ccccc21` (stereo not given): the IC50 is > 167 µM (inactive).

On to `CC(=O)c1cc(C(C)=O)c(C)nc1C`, for which the IC50 was > 167 µM (inactive).

As to `CCCNC(=O)c1ccc(N2CCC3(CC2)CC(c2ccccc2)=NO3)c(NC(=O)c2ccco2)c1`, the IC50 is > 167 µM (inactive).

With `CCOc1ccc(N=C2NC(=O)S/C2=C\c2ccc(O)cc2)cc1`, the IC50 was > 167 µM (inactive). For the compound `CC1CN(Cc2ccccc2)c2nc3c(c(=O)n(CC(N)=O)c(=O)n3C)n2C1` (stereo not given), the IC50 was > 167 µM (inactive).

`C=CCn1c(=O)c2c(nc3n2CC(C)CN3Cc2ccccc2)n(C)c1=O` (stereo not given): the IC50 is 82.5 µM (inactive). As for `N=c1ccn(CC(=O)NC(N)=O)c2ccccc12`, the IC50 was > 167 µM (inactive).

`CN(C)CC(CCC(CN(C)C)C(O)(c1ccccc1)c1ccccc1)C(O)(c1ccccc1)c1ccccc1` (stereo not given): the IC50 is 17.2 µM (inactive). As for `Cc1cc(C)n(CC(=O)n2c(C)c(C)c3ccccc32)n1`, the IC50 was > 167 µM (inactive). For the compound `Cc1ccc(Nc2c3c(nc4ncnn24)CCC3)cc1`, the IC50 is > 167 µM (inactive). As for `Cc1ccc(CNC(=O)Cc2ccc(-c3ccccc3)cc2)cc1`, the IC50 was > 167 µM (inactive). To `Cn1ncc(Cl)c1C(=O)N1CCc2ccccc21` belongs > 167 µM (inactive); to `[O-]/C(=C(\C(=S)Nc1ccc(SC(F)F)cc1)[n+]1ccccc1)c1cc(Cl)ccc1Cl`, > 167 µM (inactive). In the case of `Cc1ccc(/C=N/NC(=O)c2csc(C)c2)o1` it was 116 µM (inactive). Consider `Cc1ccc([C@H]2C[C@@H](O)[C@H](n3cc(-c4ccc(F)cc4)nn3)CN2C(=O)c2cccs2)cc1`, for which the IC50 is 63 µM (inactive).

With `O=C/C(=C\Nc1ccccn1)c1nc2ccccc2o1`, the IC50 is > 18.4 µM (inactive). `Cn1nccc1C(=O)N1CCc2ccccc21`: the IC50 was > 167 µM (inactive). To `COc1ccc(-c2noc(-c3cccs3)n2)cc1OC` belongs > 167 µM (inactive). In the case of `Cc1c(Br)c(C(=O)N2CCc3ccccc32)nn1C` it was > 167 µM (inactive); in that of `Cc1cccc(N(C)c2ncnc3onc(-c4ccc(F)cc4)c23)c1C`, > 55.2 µM (inactive). `CC(Oc1ccccc1)C(=O)N1CCN=C1SCc1ccccc1` (stereo not given): the IC50 was 70.7 µM (inactive).

On to `CN(Cc1ccccc1)C(=O)c1[nH]cnc1C(=O)NCC(=O)OC(C)(C)C`, for which the IC50 is > 167 µM (inactive). To `CCn1ncc(/C=N\NC(=O)c2csc3ccccc23)c1C` belongs > 167 µM (inactive); to `O=[N+]([O-])c1cccc(-c2noc(-c3ccco3)n2)c1`, > 167 µM (inactive). In the case of `CCCC(=O)NC1=C(N2CC2)C(=O)C(NC(=O)CCC)=C(N2CC2)C1=O` it was 23.5 µM (inactive); in that of `OCCNc1c2ccccc2nc2ccccc12`, 54.9 µM (inactive); in that of `COc1ccc([C@@H]2CC=C(C(=O)O)[C@H](c3ccccc3F)N2S(=O)(=O)c2ccccc2C)cc1`, 66.3 µM (inactive). In the case of `Cn1ncc(Br)c1C(=O)N1CCc2ccccc21` it was > 167 µM (inactive); in that of `Cc1nnc(SCc2ccc(Cl)cc2)nc1/C=C/N(C)C`, 81.3 µM (inactive); in that of `COc1ccc2[nH]c3c(Cl)ncnc3c2c1`, > 167 µM (inactive). In the case of `Cc1ccccc1Cn1cc(COC(=O)N(C)Cc2ccccc2)nn1`, the IC50 is 115 µM (inactive).

With `COc1ccc2cc3c(N)nn(C(=O)c4ccccc4[N+](=O)[O-])c3nc2c1`, the IC50 is 34.8 µM (inactive).

As to `COc1ccc(CCNc2c3ccccc3nc3ccccc23)cc1OC`, the IC50 was 54.4 µM (inactive). To `CCOC(=O)Nc1nc(-c2ccccc2)c(C(=O)c2ccc(Cl)cc2)s1` belongs > 55.2 µM (inactive); to `Cc1c(NS(=O)(=O)c2ccc(NC3CCCC3)c([N+](=O)[O-])c2)c(=O)n(-c2ccccc2)n1C`, > 167 µM (inactive). In the case of `Cc1nn(C)c(C(=O)N2CCc3ccccc32)c1Br`, the IC50 is > 167 µM (inactive).

On to `O=C(CCl)c1cc2c3c(c1)CC(=O)N3CCC2`, for which the IC50 was 19.8 µM (inactive). In the case of `c1cc2c(cc1C1=Nn3c(nnc3C3CCCCC3)SC1)OCO2` it was 47.1 µM (inactive). On to `COc1ccc(-c2cc(C)no2)cc1S(=O)(=O)NCc1cccc(C)c1`, for which the IC50 was > 167 µM (inactive). On to `Cc1ccc(C2CC(c3ccccc3)=NN2C(=S)Nc2ccccc2)o1` (stereo not given), for which the IC50 is > 167 µM (inactive). To `Cc1c(C(=O)N2CCc3ccccc32)cnn1C` belongs > 167 µM (inactive); to `O=C(O)c1ccc(CSc2nnc(Cc3ccccc3)o2)cc1`, 27.3 µM (inactive). In the case of `C/C(=N\Nc1ncc(Br)cn1)c1cccc([N+](=O)[O-])c1` it was > 167 µM (inactive); in that of `Cc1cc(C(=O)N2CCc3ccccc32)n(-c2ccccc2)n1`, 175 µM (inactive); in that of `O=c1cc(O)c2sc(Nc3ccc(Cl)c(F)c3)nc2[nH]1`, > 167 µM (inactive). On to `c1ccc(Sc2ncnc3c2oc2ccccc23)nc1`, for which the IC50 is 142 µM (inactive).
